Experimental data taken from US5277897A, “In vivo enhancement of cellular accumulation of lipophilic cationic organometallic compounds by reduction of intramembrane potential” (Brigham and Women's Hospital, priority 1992, dated 1994).

Tests used:
[1] = Effect of tetraphenylborate on the biodistribution of Tc-MIBI in rats (Table 2); type: in vivo; conditions: for Blood level / Heart uptake / Kidney uptake / Liver uptake / Lung uptake: 15 minutes; for tissue retention of Tc-MIBI, all tissues: 15 min
Description: The results are expressed as percent injected dose per gram of tissue. […] For this series of experiments, 50 microliters of dimethylsulfoxide lacking or containing 7.2 mM TPB were injected directly into the jugular vein of anesthetized rats immediately prior to the injection of Tc-MIBI (150 microliters; 100 microCuries per 200 microliters).
After 15 minutes, the animal was sacrificed by thoracotomy, organs extracted and placed in test tubes and counted for radioactivity in a standard well-type gamma counter. Tissue wet weights were obtained by subtracting fare weights from total weight of test tubes plus tissue.
Results are expressed as mean ±SEM of three determinations each.

[2] = diagnostic pharmaceutical; cited from earlier work
[3] = tested on: cultured chick heart cells; assay: Influence of TPB and CCCP on (membrane potential-independent) accumulation of Tc-MIBI (FIG. 4); type: cell-based; conditions: n=3-4
Description: FIG. 4. […] Preparations were incubated for the times indicated in 5.4 mM Ko control loading buffer containing tracer Tc-MIBI and TPB together (Δ) or in loading buffer containing Tc-MIBI alone (.quadrature.). For the latter incubation, TPB was added to the loading buffer at the arrow and cell content of Tc-MIBI subsequently determined (o). Under each condition, CCCP was added to the loading buffers as indicated by the arrows and cell content of Tc-MIBI determined ( , , ·). Each point is the mean ±SEM of 3 determinations.
(§1) Monolayers of spontaneously contractile chick ventricular myocardial cells were obtained from disaggregated 10-day old chick embryo hearts by a slight modification of previously published methods (Horres, C. R., et al., In Pinson, A. (ed.), The Heart Cell in Culture, Boca Raton, CRC Press, pp. 77-108 (1987)). Hearts were trimmed of connective tissue and atria, finely minced and serially exposed to 0.024% (w/v) trypsin in Ca^2+ - and Mg^2+ - free Earle's salt solution for 7 minutes at 37° C. Gentle trituration and agitation on an orbital shaker bath aided disaggregation. Cells released from the first exposure were discarded and cells aspirated from the next four exposures were then added to an equal volume of trypsin deactivating solution consisting of ice-cold culture medium. Cells were centrifuged at 400 g for 10 minutes, resuspended and combined in culture medium, counted with a hemocytometer and diluted to yield a suspension of 5×10^5 cells/ml. 12 ml of suspension were incubated in 100 mm plastic culture dishes containing 7 coverslips (25 mm diameter) placed on the bottom of each dish to serve as substrate for cell growth. Cells were maintained in a humidified atmosphere of 5% CO2 /95% air for 3-4 days yielding a confluent layer of spontaneously contractile myocytes on each coverslip.
Radioactive uptake methods have been described in detail (Piwnica-Worms, D., et al, Circ. (in press). Briefly, coverslips with confluent cells were removed from culture media and pre-equilibrated for 40-60 seconds in MEBSS buffer. Uptake and retention experiments were initiated by immersion of coverslips in 60 mm glass Pyrex dishes containing loading solution consisting of buffer with 0.1-0.6 nM [^99m Tc-MIBI] (0.01-0.4 Ci/nmole; 25-100 uCi/ml). Preparations were removed at various times and rinsed three times in 25 ml volumes of ice-cold (2° C.) isotope-free buffer for 8 seconds each to clear extracellular spaces. Preparations and aliquots of the loading buffer and stock solutions were counted in a well-type sodium iodide gamma counter after which cell protein on each coverslip was extracted in 1% sodium dodecylsulfate with 10 mM sodium borate and assayed by the method of Lowry (Lowry, O. H., et al., J. Biol. Chem. 193:265-275 (1951)). Tc-MIBI binding to glass coverslips without cells was used as an estimate of non-specific adhesion to the substrate ([…] obtained with cellular preparations); this value was subtracted from total uptake determinations to derive the cell-associated counts. Use of generator equilibrium equations (Lamson, M. L., et al., i J. Nucl. Med. 16:639-641 (1975)) allowed calculation of absolute moles of Tc-MIBI in solutions and preparations. Results were therefore expressed as fmol cellular Tc-MIBI/mg protein per nM extracellular Tc-MIBI concentration. […]

[4] = tested on: cultured chick heart cells; assay: Effect of valinomycin on tetraphenylborate enhancement of Tc-MIBI accumulation in high Ko buffer (Table 1); type: cell-based; conditions: for Tc-MIBI Net Uptake: n = 3
Description: as §1
Radioactive uptake methods have been described in detail (Piwnica-Worms, D., et al, Circ. (in press). Briefly, coverslips with confluent cells were removed from culture media and pre-equilibrated for 40-60 seconds in MEBSS buffer. Uptake and retention experiments were initiated by immersion of coverslips in 60 mm glass Pyrex dishes containing loading solution consisting of buffer with 0.1-0.6 nM [^99m Tc-MIBI] (0.01-0.4 Ci/nmole; 25-100 uCi/ml). Preparations were removed at various times and rinsed three times in 25 ml volumes of ice-cold (2° C.) isotope-free buffer for 8 seconds each to clear extracellular spaces. Preparations and aliquots of the loading buffer and stock solutions were counted in a well-type sodium iodide gamma counter after which cell protein on each coverslip was extracted in 1% sodium dodecylsulfate with 10 mM sodium borate and assayed by the method of Lowry (Lowry, O. H., et al., J. Biol. Chem. 193:265-275 (1951)). Tc-MIBI binding to glass coverslips without cells was used as an estimate of non-specific adhesion to the substrate ([…] obtained with cellular preparations); this value was subtracted from total uptake determinations to derive the cell-associated counts. Use of generator equilibrium equations (Lamson, M. L., et al., i J. Nucl. Med. 16:639-641 (1975)) allowed calculation of absolute moles of Tc-MIBI in solutions and preparations. Results were therefore expressed as fmol cellular Tc-MIBI/mg protein per nM extracellular Tc-MIBI concentration. Division of this value by the cell water space (6.9 ul/mg protein; Chiu, M. L., et al., J. Nucl. Med. (31:1646-1653(1990)) yields a nominal intracellular/extracellular Tc-MIBI accumulation ratio neglecting subcellular compartmentation of the agent.
To further explore the influence of TPB on any potential-independent accumulation of Tc-MIBI in myocytes, preparations were exposed to 130 mM K° 20 mM Clo buffer (Table 1). […] Equilibration of intracellular and extracellular spaces occurred in the presence of high K buffer plus valinomycin under all conditions (in/out ration ~1; P=NS) indicating the lack of any significant potential-independent membrane binding of Tc-MIBI.
Preparations were incubated in high Ko low Clo loading buffer +/- valinomycin (1 ug/ml) for 20 minutes in the presence of TPB (10^-5 M) or for 40 minutes in its absence to determine peak accumulation of Tc-MIBI under each condition. Values are the mean ±SEM. Tc-MIBI in/out ratios were obtained by dividing net uptake values by the cell water space of […] (Chiu, M. L., et al., J. Nucl. 31:1646-1653 (1990)). +p<0.01; * p<0.001 compared to net uptake in 130 mM Ko buffer.

[C-]#[N+]CC(C)(C)OC.[C-]#[N+]CC(C)(C)OC.[C-]#[N+]CC(C)(C)OC.[C-]#[N+]CC(C)(C)OC.[C-]#[N+]CC(C)(C)OC.[C-]#[N+]CC(C)(C)OC.[Tc] [Tc-MIBI, hexakis(methoxyisobutylisonitrile)technetium(I)]
Blood level ([1]; +TPB): 0.06 ± 0.01 % ID/gm
Heart uptake ([1]; +TPB): 1.45 ± 0.11 % ID/gm
Kidney uptake ([1]; +TPB): 5.81 ± 0.74 % ID/gm
Liver uptake ([1]; +TPB): 0.76 ± 0.40 % ID/gm
Lung uptake ([1]; +TPB): 1.07 ± 0.15 % ID/gm
tissue retention of Tc-MIBI, all tissues ([1]; +TPB): 9.15 % ID per gram of total tissue
Blood level ([1]; -TPB): 0.04 ± 0.01 % ID/gm
Heart uptake ([1]; -TPB): 1.92 ± 0.51 % ID/gm
Kidney uptake ([1]; -TPB): 3.38 ± 1.09 % ID/gm
Liver uptake ([1]; -TPB): 0.25 ± 0.15 % ID/gm
Lung uptake ([1]; -TPB): 0.45 ± 0.09 % ID/gm
tissue retention of Tc-MIBI, all tissues ([1]; -TPB): 6.04 % ID per gram of total tissue
safety in humans [2]: shown to be safe in humans as a diagnostic pharmaceutical
Tc-MIBI 2 min uptake ([3]; +5×10^-6 M TPB, 5 seconds pre-incubation): 20.6±0.43 fmol Tc-MIBI/mg protein per nM
Tc-MIBI 2 min uptake ([3]; +10^-7 M TPB, 5 seconds pre-incubation): 3.37±0.57 fmol Tc-MIBI/mg protein per nM
Tc-MIBI 2 min uptake ([3]; control (no TPB)): 1.23±0.15 fmol Tc-MIBI/mg protein per nM
Tc-MIBIi/Tc-MIBIo (in/out ratio) ([4]; 130 Ko (no TPB)): 9.5
Tc-MIBI Net Uptake ([4]; 130 Ko (no TPB), 40 minutes): 65.3 ± 5.3 fmol/mg protein/nMo
Tc-MIBIi/Tc-MIBIo (in/out ratio) ([4]; 130 Ko + TPB 10^-5 M): 13.6
Tc-MIBIi/Tc-MIBIo (in/out ratio) ([4]; 130 Ko + TPB 10^-5 M + valinomycin 1 ug/ml): 1.1
Tc-MIBI Net Uptake ([4]; 130 Ko + TPB 10^-5 M + valinomycin 1 ug/ml, 20 minutes, p<0.001 vs 130 mM Ko): 7.6 ± 0.8 fmol/mg protein/nMo
Tc-MIBI Net Uptake ([4]; 130 Ko + TPB 10^-5 M, 20 minutes, p<0.01 vs 130 mM Ko): 93.9 ± 4.4 fmol/mg protein/nMo
Tc-MIBIi/Tc-MIBIo (in/out ratio) ([4]; 130 Ko + valinomycin 1 ug/ml): 0.9
Tc-MIBI Net Uptake ([4]; 130 Ko + valinomycin 1 ug/ml, 40 minutes, p<0.001 vs 130 mM Ko): 6.2 ± 0.3 fmol/mg protein/nMo
in/out ratio, high K buffer plus valinomycin ([4]; all conditions, P=NS): ~ 1
